Patent US20010041801A1, “Water soluble fullerenes with antiviral activity” (The Regents of the University of California, priority 1994, published 2001)
“Also recorded” adds a separate entry of the source.

Assays:
HIV-1 protease (HIVP) = biological target: T1, HIV-1 protease (HIVP) (Human immunodeficiency virus type 1 group M subtype B, UniProt P04585); assay: Inhibition of HIV-1 protease, HPLC assay with kinetic analysis; format: biochemical
T1 construct: HIV produces a small, dimeric aspartyl protease which specifically cleaves the polyprotein precursors
Method: The ability of compound 2c to inhibit the HIVP was assayed with an HPLC method as described in R. L DesJarlais, et al., Proc. Natl. Acad. Sci U.S.A., 87:6644-6648, 1990. […] Assays were performed in buffer containing 50 mM NaAc pH 5.5, 1.0 M NaCl, 5% glycerol, 1% DMSO, and 2 mM EDTA. Inhibitor was preincubated with ≈0.05 μg of enzyme for 5 minutes at which time the reaction was initiated by addition of substrate. The reaction was quenched at <15% product formation by the addition of 15 μL of 10% TFA. The cleavage products of the substrate peptide H-Lys-Ala-Arg-Val-Tyr-p-nitro-Phe-Glu-Ala-Ile-NH2 (made by Bachem, Philadelphia, Pa.) were assayed by HPLC using a 10-40% (acetonitrile, 0.1% TFA): (water, 0.1% TFA) gradient over 30 minutes at 1 mL/minute. Product was quantitated by integration of peak areas followed by comparison to product standard curves.
Determination of kinetic constants was done with the program KinetAsyst (IntelliKinetics) by fitting of the data to the equation […]] which describes competitive inhibition.

HIV-1 LAI = assay: Antiviral activity in acutely infected human PBMC, virus RT level; format: cell-based; conditions: Human immunodeficiency virus 1, PBMC, 144 h, read-out: Antiviral Activity (EC50) in PBMC infected with HIVLAI
Method: (§1) Compound 2c was evaluated for antiviral activity in cells acutely and chronically infected with human immunodeficiency virus (HIV). Reverse transcriptase (RT) levels associated with virus were determined with virus concentrated from cell culture supernatants by high-speed centrifugation to reduce the chances of drug carryover in the enzyme assay using the method described in R. F. Schinazi, et al., Antimicrob. Agents Chemother., 36:2423-2431, 1992.

HIV-2ROD = assay: as above; format: cell-based; conditions: Human immunodeficiency virus 2, PBMC, 144 h, read-out: Antiviral Activity (EC50) in PBMC infected with HIV-2ROD
Method: as §1

HIV-1III = assay: Antiviral activity in chronically infected H9 cells, virus RT level; format: cell-based; conditions: Human immunodeficiency virus 1, H9, 144 h, read-out: Antiviral Activity (EC50) in H9 cells infected with HIV-1III
Method: as §1

[1] = Cytotoxicity in uninfected PBMC; format: cell-based, human; conditions: human, uninfected PBMC; thymidine uptake day 2 and cell counts day 6
PBMC = assay: Cytotoxicity in uninfected PBMC; format: cell-based, human; conditions: b68: up to 100 μM
Cytotoxicity in H9 cells = format: cell-based, human; conditions: human, H9 cells; cell counts on day 6
H9 cells = assay: Cytotoxicity in H9 cells; format: cell-based, human; conditions: b68: up to 100 μM
HIV-1LAI = assay: Virus inactivation assay with cell-free virus; format: cell-based; conditions: 5 to 25 μM; cell-free virus incubated 2 hours at 37° C.; RT assay day 6
Method: Cell culture evaluation techniques well known in the art can also be used to determine the antiviral and antivirucidal properties of the compounds of this invention. For instance about 200 50% tissue culture infective doses of the virus to be tested and 2 ml of the compound to be tested are incubated for 2 hours at 37° C. After incubation, a growth medium is added to each tube and the tube is centrifuged at about 40,000 rpm for 30 minutes at 4° C. The supernatant is removed and the virus pellet is resuspended in fresh medium. The virions are added to human PBMC that has been stimulated for 2 days with phytohemagglutinin in 25 cm^2 flasks in a total of 10 ml of growth medium. After about six days, residual virus in the supernatant are quantitated by an RT assay such as that described by R. F. Schinazi, et al., Antimicrob. Agents Chemother., 36:2423-2431, 1992, or in Current Protocols in Molecular Biology, Ed. by F. M. Ausubel, Current Protocols, Vol. 1, §9.13.3 and in Example 8, Table 2 below.
To confirm these findings, inactivation studies with HIV-1LAI were performed. […] On day 6, residual virus in the supernatant was quantitated by an RT assay, as described previously (R. F. Schinazi, et al., Antimicrob. Agents Chemother., 36:2423-2431, 1992). […]

[2] = tested on: nevirapine (BI-RG587)-susceptible HIV-1; assay: Susceptibility of nevirapine-susceptible HIV-1; format: cell-based; conditions: Human immunodeficiency virus 1, read-out: EC50 against nevirapine-susceptible HIV-1

O=C(O)CCC(=O)NCCc1ccc(C2(c3ccc(CCNC(=O)CCC(=O)O)cc3)C34c5c6c7c8c9c%10c(c%11c%12c3c3c5c5c%13c6c6c7c7c9c9c%14c%10c%10c%11c%11c%12c%12c3c3c5c5c%13c%13c6c6c7c9c7c9c%14c%10c%10c%11c%11c%12c3c3c5c5c%13c6c7c6c9c%10c%11c3c56)C824)cc1 [Compound 2c, bis(monosuccinimide) derivative of p,p′-bis(2-aminoethyl)diphenyl-C60]
Ki (HIV-1 protease (HIVP)): 5.3 µM | mode of inhibition (HIV-1 protease (HIVP); kinetic analysis of HIVP): competitive | EC50 (HIV-1 LAI): 7.3 ± 5.9 µM | EC50 (HIV-2ROD): 5.5 ± 3.8 µM | EC50 (HIV-1III): 10.8 ± 8.2 µM | IC50 [1]: > 100 µM | cytotoxicity in uninfected PBMC (words) (PBMC): No cytotoxicity; also recorded: noncytotoxic | cytotoxicity in uninfected PBMC (words) (PBMC; listed as bis(monosuccinimide) derivative of p,p′-bis(2-aminoethyl)-diphenyl): no cytotoxicity | IC50 at 6 days (Cytotoxicity in H9 cells): > 100 µM | cytotoxicity in H9 cells (H9 cells): No cytotoxicity; also recorded: noncytotoxic | reduction of virus infectivity relative to untreated control (HIV-1LAI): more than 95% | EC50 [2]: 0.53 µM
